Columns and labels:
[1] = test system: primary neonatal rat cardiomyocytes (NRC); experiment: Immunofluorescent staining of NRCs: multinucleation and cell size; assay type: cell-based; settings: 10 μM ADP for 3 days
Method: Isolation of primary neonatal rat cardiomyocytes (NRC) was performed using the neonatal heart dissociation kit (130-098-373, Miltenyi Biotec) as recommended by the manufacturer. Isolated cells were pre-plated with plating medium (65% DMEM, 16% M199, 10% fetal calf serum (FCS), 5% horse serum (HS), 2% glutamine and 1% penicillin/streptomycin (P/S)) for 1.5 h to deplete of the fibroblasts. NRC were plated on Type-I Collagen-coated (Advanced Biomatrix) 3 cm dishes (Nunc) in plating medium. The plating medium was changed to maintenance medium (88% DMEM, 9% M199, 1% HS, 2% glutamine and 1% P/S) 24 h after isolation of NRCs. Cardiomyocytes were treated with 3,3′,5-Triiodo-L-thyronine (T3, T5516, Sigma Aldrich) for 6 days at a concentration of 15 nM. NRCs were stimulated with exogenous ADP (A2754, Sigma Aldrich) at a concentration of 10 μM for 3 days. NRC were randomly chosen for treatment the day after isolation.
Immunofluorescent stainings were performed as described previously (Krishnan et al. Cell Metab 9, 512-524 (2009)). After fixation of NRCs with 4% paraformaldehyde (PFA)/PBS, the cells were permeabilized and incubated with primary antibodies against sarcomeric α-actinin (A7811, Sigma Aldrich) and phospho-Histone H3 (Ser10) (05-817, Cell Signaling) diluted in 2% (v/v) HS for 1 h at RT. […] Cell size was quantified blinded using the software Image J (version 1.47).

[2] = test system: NRCs; experiment: [3H]leucine incorporation assay in NRCs; assay type: cell-based, rat; settings: T3 15 nM for 6 days, scrLNA or miR27b-5p LNAs
Method: [^3H]leucine incorporation assay was used to measure de novo protein synthesis as an indirect readout for cell growth (Fukuzawa et al. Hypertension 35, 1191-1196 (2000).). 4×10^5 cells were seeded per 3 cm dish. After 3 days, cells were serum-starved overnight. Next day, cells were cultured in leucine-free medium for 4h, followed by culturing in maintenance medium containing labeled […] (specific activity 30-60 Ci/mmol, ART0233, American Radiolabelled Chemicals) at a concentration of 0.5 μCi/mL for 20 h. The next day, cells were washed with PBS, trypsinized and the radioactivity was measured for 5 min in the liquid scintillation analyzer Tri-Carb 2800TR (Perkin Elmer). Cells were counted blinded with a Neubauer chamber after trypsinization and scintillation counts were normalized to absolute cell number.

[3] = test system: NRCs; experiment: ADP/ATP ratio in NRCs; assay type: cell-based, rat; settings: T3 15 nM for 6 days, scrLNA or miR27b-5p LNAs
Method: Mitochondria were isolated using the Mitochondria Isolation Kit for Cultured Cells (Abcam). Briefly, 1.2×10^6 NRCs were seeded per 6 cm dish and cells collected by scraping. After a freeze-thaw step to weaken the cell membrane, the cells were resuspended to a protein concentration of 5 mg/mL in Reagent A and incubated for 10 min on ice. The cells were homogenized with 30 strokes in a Dounce Homogenizer and centrifuged at 1000 g for 10 min at 4° C. The pellet was resuspended in the same volume of Reagent B than was used for Reagent A and rupturing and centrifugation was repeated. The supernatants after the two centrifugation steps were combined and centrifuged at 12000 g for 15 min at 4° C. Pellet was resuspended in 80 μL Reagent C supplemented with protease inhibitors and stored at −80° C. Mitochondrial ADP:ATP quantification was performed as recommended by the manufacturer (Abcam). 4×10^5 NRCs were seeded per well in a 3 cm dish and the assay was performed using the EnzyLight ADP/ATP Ratio Assay Kit (ELDT-100, Bioassay Systems) as recommended by the manufacturer. Luminescence was measured on a FLUOstar Omega plate reader (BMG).

SMILES | cardiomyocyte hypertrophy by cell size quantification [1] | multinucleation (percentage of multinucleated cells) [1] | hypertrophy ([3H]leucine incorporation) [2] | ADP/ATP [3]
Nc1ncnc2c1ncn2[C@@H]1O[C@H](COP(=O)(O)OP(=O)(O)O)[C@@H](O)[C@H]1O [ADP] | cardiomyocyte hypertrophy | sufficiency to induce multinucleation | – | –
N[C@@H](Cc1cc(I)c(Oc2ccc(O)c(I)c2)c(I)c1)C(=O)O [T3, 3,3′,5-Triiodo-L-thyronine] | – | – | highly miR27b-dependent hypertrophy | increase

— patent publication US20220332845A1, “INHIBITION OF MTHFD1L FOR USE IN HYPERTROPHIC HEART DISEASE AND HEART FAILURE” (GENOME BIOLOGICS UG, priority 2019, published 2022)
